{"source": "PubChem BioAssay AID248", "about": "(DTP/NCI, 2004)", "test_system": "L1210 leukemia ip in BDF1 mice, survival T/C", "experiment": "NCI In Vivo Anticancer Drug Screen. Data for tumor model L1210 Leukemia (intraperitoneal) in B6D2F1 (BDF1) mice", "conditions": "higher = longer survival", "outline": "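Tumor cells were implanted, animals were treated, and survival was followed. The result divides the treated measurement by the vehicle-control measurement.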", "key": {"[1]": {"conditions": "endpoint: mean survival time, dose: 100.0 mg/kg/injection, schedule: Q01DX009 (ip), vehicle: saline with Tween-80"}, "[2]": {"conditions": "endpoint: mean survival time, dose: 200.0 mg/kg/injection, schedule: Q01DX009 (ip), vehicle: saline with Tween-80"}, "[3]": {"conditions": "endpoint: mean survival time, dose: 50.0 mg/kg/injection, schedule: Q01DX009 (ip), vehicle: saline with Tween-80"}, "[4]": {"conditions": "endpoint: mean survival time, dose: 100.0 mg/kg/injection, schedule: Q04DX003 (ip), vehicle: saline"}, "[5]": {"conditions": "endpoint: mean survival time, dose: 200.0 mg/kg/injection, schedule: Q04DX003 (ip), vehicle: saline"}}, "note": "Inconclusive results and toxic doses are left out.", "data": [{"compound": "CC(C)[Si](F)(c1ccc(Br)cc1)C(C)C", "values": [{"measurement": "T/C", "setting": "[1]", "result": "103 % of control"}, {"measurement": "T/C", "setting": "[2]", "result": "95 % of control"}]}, {"compound": "Cc1cc(Br)c(I)c([N+](=O)[O-])c1", "values": [{"measurement": "T/C", "setting": "endpoint: mean survival time, dose: 37.5 mg/kg/injection, schedule: Q04DX003 (ip), vehicle: saline with Tween-80", "result": "104 % of control"}, {"measurement": "T/C", "setting": "endpoint: mean survival time, dose: 75.0 mg/kg/injection, schedule: Q04DX003 (ip), vehicle: saline with Tween-80", "result": "95 % of control"}, {"measurement": "T/C", "setting": "endpoint: mean survival time, dose: 150.0 mg/kg/injection, schedule: Q04DX003 (ip), vehicle: saline with Tween-80", "result": "102 % of control"}]}, {"compound": "COc1ccc([N+](=O)[O-])cc1NC(=O)COc1cc(Cl)c(Cl)cc1Cl", "values": [{"measurement": "T/C", "setting": "endpoint: mean survival time, dose: 100.0 mg/kg/injection, schedule: Q01DX009 (ip), vehicle: Klucel (hydroxypropylcellulose) (HPC)", "result": "94 % of control"}, {"measurement": "T/C", "setting": "endpoint: mean survival time, dose: 200.0 mg/kg/injection, schedule: Q01DX009 (ip), vehicle: Klucel (hydroxypropylcellulose) (HPC)", "result": "108 % of control"}, {"measurement": "T/C", "setting": "endpoint: mean survival time, dose: 400.0 mg/kg/injection, schedule: Q01DX009 (ip), vehicle: Klucel (hydroxypropylcellulose) (HPC)", "result": "94 % of control"}]}, {"compound": "CC(C)(CCCO)c1ccccc1", "values": [{"measurement": "T/C", "setting": "[3]", "result": "96 % of control"}, {"measurement": "T/C", "setting": "[1]", "result": "104 % of control"}]}, {"compound": "O=CC(CO)C(C=O)n1ncc2ccccc21", "note": "(stereo not given)", "values": [{"measurement": "T/C", "setting": "endpoint: mean survival time, dose: 50.0 mg/kg/injection, schedule: Q01DX005 (ip), vehicle: water", "result": "112 % of control"}]}, {"compound": "CC[N+](C)(CC)CCOC(=O)C1C2CC3OC(=O)C1C3C2", "note": "(stereo not given)", "values": [{"measurement": "T/C", "setting": "[4]", "result": "108 % of control"}, {"measurement": "T/C", "setting": "[5]", "result": "112 % of control"}]}, {"compound": "O=C1OC2CCCCC2c2ccccc21", "note": "(stereo not given)", "values": [{"measurement": "T/C", "setting": "[1]", "result": "98 % of control"}, {"measurement": "T/C", "setting": "[2]", "result": "103 % of control"}, {"measurement": "T/C", "setting": "endpoint: mean survival time, dose: 400.0 mg/kg/injection, schedule: Q01DX009 (ip), vehicle: saline with Tween-80", "result": "103 % of control"}]}, {"compound": "c1ccc(C2SCCSCCS2)cc1", "values": [{"measurement": "T/C", "setting": "endpoint: mean survival time, dose: 25.0 mg/kg/injection, schedule: Q01DX009 (ip), vehicle: saline with Tween-80", "result": "92 % of control"}, {"measurement": "T/C", "setting": "[3]", "result": "86 % of control"}, {"measurement": "T/C", "setting": "[1]", "result": "86 % of control"}, {"measurement": "T/C", "setting": "endpoint: mean survival time, dose: 100.0 mg/kg/injection, schedule: Q04DX003 (ip), vehicle: Klucel (hydroxypropylcellulose) (HPC)", "result": "102 % of control"}, {"measurement": "T/C", "setting": "endpoint: mean survival time, dose: 200.0 mg/kg/injection, schedule: Q04DX003 (ip), vehicle: Klucel (hydroxypropylcellulose) (HPC)", "result": "100 % of control"}, {"measurement": "T/C", "setting": "endpoint: mean survival time, dose: 400.0 mg/kg/injection, schedule: Q04DX003 (ip), vehicle: Klucel (hydroxypropylcellulose) (HPC)", "result": "92 % of control"}]}, {"compound": "NC(=O)CCC(C(=O)O)N1C(=O)C2C3CCC(C3)C2C1=O", "note": "(stereo not given)", "values": [{"measurement": "T/C", "setting": "[4]", "result": "98 % of control"}, {"measurement": "T/C", "setting": "[5]", "result": "95 % of control"}, {"measurement": "T/C", "setting": "endpoint: mean survival time, dose: 400.0 mg/kg/injection, schedule: Q04DX003 (ip), vehicle: saline", "result": "95 % of control"}]}, {"compound": "CC(C)(C)C(=O)Nc1ccc(NS(=O)(=O)c2ccccc2)cc1", "values": [{"measurement": "T/C", "setting": "endpoint: mean survival time, dose: 100.0 mg/kg/injection, schedule: Q04DX003 (ip), vehicle: saline with Tween-80", "result": "102 % of control"}, {"measurement": "T/C", "setting": "endpoint: mean survival time, dose: 200.0 mg/kg/injection, schedule: Q04DX003 (ip), vehicle: saline with Tween-80", "result": "89 % of control"}, {"measurement": "T/C", "setting": "endpoint: mean survival time, dose: 400.0 mg/kg/injection, schedule: Q04DX003 (ip), vehicle: saline with Tween-80", "result": "88 % of control"}]}, {"compound": "CCCC(CCC)=NCCCO", "values": [{"measurement": "T/C", "setting": "endpoint: mean survival time, dose: 75.0 mg/kg/injection, schedule: Q01DX001 (ip), vehicle: carboxymethylcellulose (CMC)", "result": "96 % of control"}, {"measurement": "T/C", "setting": "endpoint: mean survival time, dose: 150.0 mg/kg/injection, schedule: Q01DX001 (ip), vehicle: carboxymethylcellulose (CMC)", "result": "102 % of control"}]}, {"compound": "Cl", "values": [{"measurement": "T/C", "setting": "endpoint: mean survival time, dose: 50.0 mg/kg/injection, schedule: Q01DX009 (oral), vehicle: water", "result": "97 % of control"}, {"measurement": "T/C", "setting": "endpoint: median survival time, dose: 15.0 mg/kg/injection, schedule: Q01DX009 (ip), vehicle: water", "result": "87 % of control"}, {"measurement": "T/C", "setting": "endpoint: median survival time, dose: 30.0 mg/kg/injection, schedule: Q01DX009 (ip), vehicle: water", "result": "100 % of control"}, {"measurement": "T/C", "setting": "endpoint: median survival time, dose: 60.0 mg/kg/injection, schedule: Q01DX009 (ip), vehicle: water", "result": "112 % of control"}, {"measurement": "T/C", "setting": "endpoint: median survival time, dose: 90.0 mg/kg/injection, schedule: Q01DX009 (ip), vehicle: water", "result": "112 % of control"}]}]}
